Results from patent US4929601A, “Tripeptides useful as immunostimulants as well as in the prevention of metastases” (Ellem Industria Farmaceutica, S.p.A., priority 1987, dated 1990).

Tests used:
[1] = tested on: PHA-stimulated human T lymphocytes; assay: RNA synthesis in PHA-stimulated human T lymphocytes in vitro (3H-uridine); type: cell-based; details: for RNA synthesis, 3H-uridine c.p.m. (mean): control 3835
Protocol: Human T lymphocytes, incubated in vitro for 24 hours in presence of 0.5% phytohemagglutinin (PHA) and different concentrations of the tripeptides under examination, have been analyzed for RNA synthesis (cell activation) by means of 3H-uridine labelling.

[2] = tested on: PHA-stimulated human T lymphocytes; assay: DNA synthesis in PHA-stimulated human T lymphocytes in vitro (3H-thymidine); type: cell-based; details: for DNA synthesis, 3H-thymidine c.p.m. (mean): control 22642
Protocol: Human T lymphocytes, incubated in vitro for 72 hours in presence of 0.5% PHA and different concentrations of the tripeptides under examination, have been analyzed for DNA synthesis (cell proliferation) by means of 3H-thymidine labelling.

N=C(N)NCCC[C@H](N)C(=O)NCC(=O)N[C@H](CC(=O)O)C(=O)O [ARG--GLY--D--ASP, L-Arginyl-glycyl-D-Aspartic acid]
PHA-induced human T lymphocyte activation (RNA synthesis) ([1]; 24 hours, 0.5% PHA): able to increase
RNA synthesis Δ % ([1]; peptide 0.0001 mcg/ml): -8%
RNA synthesis, 3H-uridine c.p.m. (mean) ([1]; peptide 0.0001 mcg/ml, 24 hours, 0.5% PHA): 3517 c.p.m.
RNA synthesis Δ % ([1]; peptide 0.001 mcg/ml): +8%
RNA synthesis, 3H-uridine c.p.m. (mean) ([1]; peptide 0.001 mcg/ml, 24 hours, 0.5% PHA): 4129 c.p.m.
RNA synthesis Δ % ([1]; peptide 0.01 mcg/ml): +12%
RNA synthesis, 3H-uridine c.p.m. (mean) ([1]; peptide 0.01 mcg/ml, 24 hours, 0.5% PHA): 4283 c.p.m.
RNA synthesis Δ % ([1]; peptide 0.1 mcg/ml): +25%
RNA synthesis, 3H-uridine c.p.m. (mean) ([1]; peptide 0.1 mcg/ml, 24 hours, 0.5% PHA): 4777 c.p.m.
RNA synthesis Δ % ([1]; peptide 1 mcg/ml): +22%
RNA synthesis, 3H-uridine c.p.m. (mean) ([1]; peptide 1 mcg/ml, 24 hours, 0.5% PHA): 4682 c.p.m.
RNA synthesis Δ % ([1]; peptide 10 mcg/ml): +13%
RNA synthesis, 3H-uridine c.p.m. (mean) ([1]; peptide 10 mcg/ml, 24 hours, 0.5% PHA): 4346 c.p.m.
PHA-induced human T lymphocyte proliferation (DNA synthesis) ([2]; 72 hours, 0.5% PHA): able to increase
DNA synthesis Δ % ([2]; peptide 0.0001 mcg/ml): -3%
DNA synthesis, 3H-thymidine c.p.m. (mean) ([2]; peptide 0.0001 mcg/ml, 72 hours, 0.5% PHA): 21898 c.p.m.
DNA synthesis Δ % ([2]; peptide 0.001 mcg/ml): +2%
DNA synthesis, 3H-thymidine c.p.m. (mean) ([2]; peptide 0.001 mcg/ml, 72 hours, 0.5% PHA): 23029 c.p.m.
DNA synthesis Δ % ([2]; peptide 0.01 mcg/ml): +8%
DNA synthesis, 3H-thymidine c.p.m. (mean) ([2]; peptide 0.01 mcg/ml, 72 hours, 0.5% PHA): 24551 c.p.m.
DNA synthesis Δ % ([2]; peptide 0.1 mcg/ml): +15%
DNA synthesis, 3H-thymidine c.p.m. (mean) ([2]; peptide 0.1 mcg/ml, 72 hours, 0.5% PHA): 26090 c.p.m.
DNA synthesis Δ % ([2]; peptide 1 mcg/ml): +16%
DNA synthesis, 3H-thymidine c.p.m. (mean) ([2]; peptide 1 mcg/ml, 72 hours, 0.5% PHA): 26170 c.p.m.
DNA synthesis Δ % ([2]; peptide 10 mcg/ml): +9%
DNA synthesis, 3H-thymidine c.p.m. (mean) ([2]; peptide 10 mcg/ml, 72 hours, 0.5% PHA): 24570 c.p.m.
